From EP4692089A1, “NITROGEN-CONTAINING HETEROCYCLIC COMPOUND AS AAK1 INHIBITOR” (Alicorn Pharmaceutical Co., Ltd., priority 2023, dated 2024) come the findings set out here.

For series [1], the target named is T1, AAK1 (30-330) protein (Homo sapiens, UniProt Q2M2I8).
T1 construct: (His)6x (N); TEV protease cleavage site (N); made in house; host or cells: Escherichia coli BL21(DE3)
Kind of series: AAK1 kinase assay (ADP generated, detected by HPLC). The series is classed as biochemical. The note with it: 3.5 nM AAK1, 22 µM ATP, 25°C, 3 h. An excerpt: Experimental objective: The objective of this test example is to test the effect of compounds on AAK1 kinase function.
Background principle: AAK1 phosphorylates the threonine residue in the micro-subunit of AP2 (AP2M1). In this process, ATP provides phosphate groups to generate ADP. Therefore, the activity of AAK1 kinase can be evaluated by detecting the amount of ADP generated.
(§1) Expression of AAK1 (30-330) protein: The AAK1 sequence (residues 30-330) was cloned into the pET24N vector with an N-terminal (His)6x tag and a tobacco etch virus (TEV) protease cleavage site. The constructed vector was transformed into Escherichia coli BL21(DE3). When the bacteria were cultured with shaking to reach an OD value of 0.6, 1 mM IPTG was added. […] The bacterial cells were collected and subjected to ultrasonic disruption. The supernatant was obtained by centrifugation, and the protein was purified using Ni-NTA. After dialysis, the concentration and purity of the protein were determined.
The reaction mixture was incubated in a metal bath at 25°C for 3 h. The reaction was terminated by adding 1% SDS, and the amount of ADP generated was detected by HPLC. IC50 values were calculated using GraphPad software.

The next series addresses T2, AAK1 (Homo sapiens, UniProt Q2M2I8).
T2 construct: HA; expressed in transfected cells; host or cells: 293T cells
The experiment in a line: Effect on AP2M1 phosphorylation in 293T cells co-transfected with AAK1 and AP2M1 (Western blot, anti-p-AP2M1). It counts as cell-based. Conditions: p-AP2M1 level, incubated 3 h. An excerpt: Experimental objective: The objective of this test example is to determine the effect of compounds on AP2M1 phosphorylation in cells.
Background principle: Adaptor-associated kinase 1 (AAK1), also known as AP2-associated kinase 1, is a 104 kDa serine/threonine kinase. AAK1 interacts with the adaptor protein 2 (AP2) complex and phosphorylates the threonine residue in the micro-subunit of AP2 (AP2M1), thereby increasing its binding affinity for certain tyrosine-based or dileucine-based sorting signals of some membrane receptors. The inhibitory effect of compounds on AAK1 was evaluated by detecting the phosphorylation level of AP2M1 in cells, so as to screen candidate compounds.
On the second day, each T25 flask was co-transfected with 16 µg of plasmids (1 µg of AAK1/HA/pIRES and 15 µg of Flag/AP2MI/pcDNA) using a Lip2000 transfection reagent. On the third day, the cells were digested and resuspended, centrifuged at 1000 rpm for 5 minutes, and then seeded into 24-well plates at 450 µl per well (2 × 10^5 cells/well). Gradient dilutions of the compounds to be tested were prepared, 50 µl was added to each well, mixed thoroughly, and incubated at 37°C for 3 h. DMSO was set as a control, and cells without plasmid transfection were set as a blank control. After incubation, the cells were collected and washed twice with PBS. The cells were lysed on ice for 30 minutes using a cell lysis buffer containing the protease inhibitor PMSF. The concentration of protein samples was determined using a BCA kit. Protein electrophoresis: The voltage for the stacking gel was set at 60 V, and that for the separating gel was set at 120 V. After electrophoresis, electrotransfer was initiated. Electrotransfer conditions were set at 250 mA for 2 h. Blocking with 5% BSA was performed for 1 h. A specific primary antibody, anti-p-AP2M1, was added, and incubation was carried out overnight at 4°C on a shaker. Washing with TBST was conducted 4 times, with 2.5 minutes each time. A secondary antibody was incubated on a shaker at room temperature for 1 h. Washing with TBST was conducted 4 times, with 2.5 minutes each time. ECL was used for development to detect the expression level of p-AP2M1. Western blot bands were processed and converted using Image J and GraphPad software to calculate IC50.
IC50 (half maximal inhibitory concentration) refers to the half-inhibitory concentration of the measured antagonist. It can indicate the concentration of a certain drug or substance (inhibitor) that achieves half of the inhibition effect on certain biological processes (or certain substances involved in these processes, such as enzymes, cellular receptors, or microorganisms).

Series [2] can be described thus: Pharmacokinetic test in SD rats. Conditions: rat, plasma, po, 3 mg/kg.
Procedure: Experimental objective: The objective of this experimental example is to test the pharmacokinetic profile of compounds in SD rats.
Route of administration: The animals were weighed before administration, and the dose was calculated based on their body weight. Administration was performed via intravenous injection and oral gavage.
Blood collection time points: After administration, for IV group: 0.083 h, 0.25 h, 0.5 h, 1 h, 2 h, 4 h, 8 h, and 24 h; for PO group: 0.25 h, 0.5 h, 1 h, 2 h, 4 h, 6 h, 8 h, and 24 h. Blood was collected via the jugular vein, with approximately 0.2 mL collected for each sample. The blood samples were anticoagulated with K2-EDTA and placed on ice after collection.
Plasma sample processing: After collection, the blood samples were placed on ice and centrifuged within 1 hour to separate plasma (centrifugation conditions: 6800g, 6 minutes, 2-8°C). The plasma samples were stored in a -80°C refrigerator before analysis.
Result analysis: Pharmacokinetic parameters were calculated using Phoenix WinNonlin 7.0 based on the plasma concentration data at different time points.
For series [3], the system named is streptozotocin (STZ)-induced peripheral neuropathic pain (DPNP) in diabetic rat models. Kind of series: Efficacy test in diabetic peripheral neuropathic pain (DPNP), Von Frey pain threshold. It counts as in vivo, SD rats. The protocol:
Experimental methods: After the adaptation period, the rats were tested for baseline plantar pain threshold using the Von Frey (Up-Down method) before modeling. Subsequently, except for the blank control group, all other rats were fasted for 16 hours with free access to water and then intraperitoneally injected with streptozotocin for modeling (65 mg/kg; 2 mL/kg). One week after modeling, blood was collected from the tail tip to detect blood glucose levels after a 4-hour fast. Rats with blood glucose levels higher than 16.7 mmol/L were considered diabetic.

A short description of series [4]: Blood-brain distribution in DPNP model rats. Conditions: 1 mg/kg.
Procedure: Experimental objective: This experiment aims to investigate the analgesic effect of test compounds on streptozotocin (STZ)-induced peripheral neuropathic pain (DPNP) in diabetic rat models and the brain-blood distribution of the compounds associated with the efficacy, via single oral gavage (ig.) administration.
After successful modeling, the baseline plantar pain threshold of the rats was tested using the Von Frey (UP-Down method) as the baseline pain threshold before administration, and the rats were evenly grouped according to their pain thresholds. The groups included a blank control group, a model group, a positive control group (1 mg/kg), a Compound 26 (0.5 mg/kg) group, and a Compound 26 (1 mg/kg) group. The next day, the rats were administered the vehicle or corresponding drugs. At 2 h, 3 h, 4 h, 5 h, and 6 h after administration, the pain threshold of the plantar region on the affected side of rats was determined using Von Frey filaments to calculate the pain threshold improvement rate of the test compounds against neuropathic pain in diabetic rats, and to observe the time-effect relationship. After the experiment, rats from groups G3-G5 (numbers 1-3 per group) were sacrificed, and plasma and brain tissue samples were collected for testing.
Series [5] deals with T1, AAK1 (30-330) protein. The experiment in a line: CETSA test of binding ability to AAK1 protein (Western blot). The method, then: Experimental objective: To detect the binding ability of compounds to AAK1 protein by means of a CETSA experiment.
Background principle: The CETSA experiment is a molecular detection means for measuring the affinity between drugs and target proteins. […] When a candidate drug is co-incubated with a target protein, if the candidate drug is an inhibitor of AAK1, it can bind to AAK1. […] On the contrary, the stability of the AAK1 protein after heating will be poorer, and the amount of the detected protein will be lower. In this way, the binding ability of the drug to the target protein can be evaluated, which is used for the screening of AAK1 protein inhibitors.
as §1
CETSA sample preparation: Samples were incubated with candidate drugs, control drugs, and control reagents separately for 30 minutes. Each group of samples was heated at approximately 10 pre-set temperature points. After being returned to room temperature, the samples were centrifuged at 20000 g, and the supernatants were collected. Protein samples were denatured by heating at 100°C for 10 minutes with a sample buffer. After the samples were returned to room temperature, Western blot detection was performed on them; the protein loading amount was controlled at 20 µg. […] The same operations were followed, and Western blot detection was conducted. Protein electrophoresis: The voltage for the stacking gel was set at 60 V, and that for the separating gel was set at 120 V. After electrophoresis, electrotransfer was initiated. Electrotransfer conditions were set at 250 mA for 2 h. Blocking with 5% BSA was performed for 1 h. A specific primary antibody was added, and incubation was carried out overnight at 4°C on a shaker. Washing with TBST was conducted 4 times, with 2.5 minutes each time. A secondary antibody was incubated on a shaker at room temperature for 1 h. Washing with TBST was conducted 4 times, with 2.5 minutes each time. ECL was used for development to detect the expression levels of AAK1 protein in different groups and at each temperature point. Western blot bands were processed and converted using Image J and GraphPad software to calculate EC50.

The mark [6] stands for this setting: DPNP model rats, 6 h after intragastric administration.

A value given as a limit tells only on which side of the number the result lay.

T2 sequence (Q2M2I8 whole entry): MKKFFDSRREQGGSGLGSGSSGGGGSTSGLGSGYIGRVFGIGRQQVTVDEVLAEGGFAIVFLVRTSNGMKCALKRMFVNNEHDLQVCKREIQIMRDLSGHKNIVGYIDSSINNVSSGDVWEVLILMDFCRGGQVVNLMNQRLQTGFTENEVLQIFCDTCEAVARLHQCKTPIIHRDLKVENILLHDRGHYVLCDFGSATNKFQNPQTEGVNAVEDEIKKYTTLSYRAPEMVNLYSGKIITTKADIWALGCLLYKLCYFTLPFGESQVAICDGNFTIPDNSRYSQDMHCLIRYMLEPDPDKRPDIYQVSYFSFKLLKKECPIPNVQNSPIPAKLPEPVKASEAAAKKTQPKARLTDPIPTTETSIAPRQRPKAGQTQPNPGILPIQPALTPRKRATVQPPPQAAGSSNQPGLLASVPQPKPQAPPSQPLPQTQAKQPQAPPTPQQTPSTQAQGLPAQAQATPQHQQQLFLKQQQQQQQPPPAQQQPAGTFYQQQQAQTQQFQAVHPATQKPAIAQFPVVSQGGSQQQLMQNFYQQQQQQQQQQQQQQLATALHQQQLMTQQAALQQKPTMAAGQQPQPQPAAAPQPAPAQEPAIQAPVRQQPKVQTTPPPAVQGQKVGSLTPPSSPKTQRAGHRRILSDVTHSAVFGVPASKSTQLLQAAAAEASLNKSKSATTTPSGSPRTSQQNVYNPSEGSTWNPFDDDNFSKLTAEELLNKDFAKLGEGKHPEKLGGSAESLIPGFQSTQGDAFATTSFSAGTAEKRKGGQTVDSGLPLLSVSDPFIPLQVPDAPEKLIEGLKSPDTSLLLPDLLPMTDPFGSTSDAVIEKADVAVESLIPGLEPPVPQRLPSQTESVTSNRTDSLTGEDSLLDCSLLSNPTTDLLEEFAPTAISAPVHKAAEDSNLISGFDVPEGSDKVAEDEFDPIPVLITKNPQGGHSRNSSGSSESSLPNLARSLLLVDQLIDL
T1 sequence (Q2M2I8 30-330): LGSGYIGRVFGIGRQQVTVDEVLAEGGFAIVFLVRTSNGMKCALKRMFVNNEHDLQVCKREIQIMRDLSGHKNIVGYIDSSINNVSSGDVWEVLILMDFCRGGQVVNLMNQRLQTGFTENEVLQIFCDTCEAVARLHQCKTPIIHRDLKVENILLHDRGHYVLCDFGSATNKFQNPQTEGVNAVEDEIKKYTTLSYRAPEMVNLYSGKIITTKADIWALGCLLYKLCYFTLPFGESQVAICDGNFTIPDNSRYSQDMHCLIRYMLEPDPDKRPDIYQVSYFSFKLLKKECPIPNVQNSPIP

Regarding `CC(C)C[C@](C)(N)COc1ccc(-c2ccnc(C(F)F)c2)nc1C(F)F` [BMS-986176, reference compound], the 50% inhibitory concentration (IC50) on AAK1 (30-330) protein [1] worked out at 260 nM. Also, at AAK1, the IC50 was in the range of 100 to 1000 nM. Moreover, in series [2], the AUC(0-inf) was 1160 ng·h/mL, the AUC(0-t) amounted to 1070 ng·h/mL, the Cmax stood at 85.6 ng/mL and the MRT inf amounted to 9.5 h. In series [2], the MRT last was found to be 7.52 h, the Tmax was 3.33 h and the half-life is 6.32 h. Besides, the “MWT (g) After modeling” value in series [3] (1 mg/kg group, after modeling, before administration, x±s, n=5) was determined as 7.00 ± 1.83 g. Further, the “Pain threshold improvement rate 2h” value in series [3] (1 mg/kg single ig., 2 h) is 64.51. For the same compound, the “MWT (g) 2h” value in series [3] (1 mg/kg single ig., 2 h after administration, x±s, n=5) stood at 10.38 ± 2.59 g. In addition, the “Pain threshold improvement rate 3 h” value in series [3] (1 mg/kg single ig., 3 h) is recorded as 42.24. The “MWT (g) 3 h” value in series [3] (1 mg/kg single ig., 3 h after administration, x±s, n=5) was found to be 7.51 ± 4.29 g. Also, the “Pain threshold improvement rate 4h” value in series [3] (1 mg/kg single ig., 4 h) came out at 20.35. Moreover, the “MWT (g) 4 h” value in series [3] (1 mg/kg single ig., 4 h after administration, x±s, n=5) amounted to 5.06 ± 2.76 g. Moreover, in series [3] (1 mg/kg single ig., 5 h), the “Pain threshold improvement rate 5 h” value stood at 16.32. For the same compound, the “MWT (g) 5 h” value in series [3] (1 mg/kg single ig., 5 h after administration, x±s, n=5) came out at 4.82 ± 1.07 g. In series [3] (1 mg/kg single ig., 6 h), the “Pain threshold improvement rate 6h” value was 20.85. The “MWT (g) 6h” value in series [3] (1 mg/kg single ig., 6 h after administration, x±s, n=5) was 4.63 ± 0.64 g. Moreover, the duration of analgesia in series [3] (1 mg/kg, time after administration) is listed as ≤ 4 h. In addition, in series [4] (setting [6]), the “Brain tissue concentration” value came to 26.94 ng/mL, the “Brain tissue concentration*” value is listed as 296.36 ng/g and the “Plasma concentration” value came out at 34.38 ng/mL. In addition, in series [4] (rat, brain, po), the Kp at 6 h is 8.62. The EC50 on AAK1 (30-330) protein [5] is 100 to 1000 nM.
With `CC(C)C[C@](C)(N)COc1ccc(-c2c[nH]c3ncc(Cl)cc23)nc1C(F)F` [Compound 44, (S)-1-{[6-(5-chloro-1H-pyrrolo[2,3-b]pyridin-3-yl)-2-(difluoromethyl)pyridin-3-yl]oxy}-2,4-dimethylpentan-2-amine], the IC50 on AAK1 (30-330) protein [1] was 8.2 nM; against AAK1, < 10 nM. In addition, on AAK1 (30-330) protein [5], the EC50 was < 10 nM.
With `COc1ccnc2[nH]cc(-c3ccc(OC[C@](C)(N)CC(C)C)c(C(F)F)n3)c12` [Compound 17, (R)-1-{[2-(difluoromethyl)-6-(4-methoxy-1H-pyrrolo[2,3-b]pyridin-3-yl)pyridin-3-yl]oxy}-2,4-dimethylpentan-2-amine], the figures for the IC50 on AAK1 (30-330) protein [1] and on AAK1 were 56.9 nM and 100 to 1000 nM, respectively. On AAK1 (30-330) protein [5], the 50% effective concentration (EC50) lay within 10 to 100 nM.
For `CC(C)C[C@@](C)(N)COc1ccc(-c2ccnc3[nH]cnc23)nc1C(F)F` [Compound 7], the IC50 against AAK1 (30-330) protein [1] was 101 nM; against AAK1, 10 to 100 nM. The compound also showed an EC50 at AAK1 (30-330) protein [5] of 100 to 1000 nM.
Regarding `CC(C)C[C@](C)(N)COc1ccc(-c2c[nH]c3ncc(C(F)F)cc23)cc1C(F)(F)F` [Compound 33], the figures for the IC50 against AAK1 (30-330) protein [1] and on AAK1 were 69.5 nM and 10 to 100 nM, respectively. Also, the EC50 on AAK1 (30-330) protein [5] fell in the range of 10 to 100 nM.
Take `CC(C)C[C@](C)(N)COc1ccc(-c2c[nH]c3nc(C(F)(F)F)ccc23)nc1C(F)F` [Compound 4]: the IC50 on AAK1 (30-330) protein [1] was 45.9 nM; at AAK1, 10 to 100 nM. The compound further registered an EC50 on AAK1 (30-330) protein [5] of 10 to 100 nM.
On to `CC(C)C[C@@](C)(N)COc1ccc(-c2ccnc3c2nc(C(F)(F)F)n3C)nc1C(F)F` [Compound 11], for which the IC50 was 123 nM against AAK1 (30-330) protein [1] and 10 to 100 nM on AAK1. This compound returned an EC50 at AAK1 (30-330) protein [5] of 10 to 100 nM.
Take `CC(C)C[C@@](C)(N)COc1ccc(-c2ccnc3c(F)cnn23)nc1C(F)F` [Compound 19]: the figures for the IC50 on AAK1 (30-330) protein [1] and on AAK1 were 87.3 nM and 10 to 100 nM, respectively. The compound also returned an EC50 on AAK1 (30-330) protein [5] of 10 to 100 nM.
